Measurements from US11964955B2, “Mixtures of cannabinoid compounds, and production and use thereof” (priority 2015, dated 2024).
Entries after “also recorded” stand apart in the source; their conditions may differ. Where two headings read alike, the source gives them in different places.

Assays:
CB2 receptor [1] = conditions: Pertwee et al. Pharmacol. Rev. 2010; read-out: CB2 affinity (dissociation constant) listed in the literature; cited from earlier work
CB1 receptor [2] = target: T1, CB1 receptor (Homo sapiens, UniProt P21554); assay: biochemical; format: binding; parameters: purchased RBHCB1M400UA
CB2 receptor [3] = target: T2, CB2 receptor (Homo sapiens, UniProt P34972); assay: Competition binding study with [3H]-CP55940 on membranes of CB2-transfected human cells; parameters: purchased RBXCB2M400UA; conditions: for Ki: mean +/- SEM, [3H]-CP55940 0.15 nM, triplicates; for Selectivity for CB2 compared to CB1 (fold): ratio of Ki CB1 to Ki CB2; for CB2 (% Binding): screening with a single high dose, displacement of [3H]-CP55940 0.15 nM
CB2 receptor [4] = target: T2, CB2 receptor; assay: Signal transmission (CRE-luciferase, forskolin) in CHO-CB2-CREluc cells, agonism; conditions: for Functional effect at the CB2 receptor (in words): FIGS. 2 and 3
CB1 receptor [5] = target: T1, CB1 receptor; assay: Signal transmission (CRE-luciferase) in CHO-CB1-CREluc cells, agonism and antagonism versus WIN; conditions: for Functional effect at the CB1 receptor (in words): text and FIGS. 4 to 6

T2 sequence (P34972 whole entry): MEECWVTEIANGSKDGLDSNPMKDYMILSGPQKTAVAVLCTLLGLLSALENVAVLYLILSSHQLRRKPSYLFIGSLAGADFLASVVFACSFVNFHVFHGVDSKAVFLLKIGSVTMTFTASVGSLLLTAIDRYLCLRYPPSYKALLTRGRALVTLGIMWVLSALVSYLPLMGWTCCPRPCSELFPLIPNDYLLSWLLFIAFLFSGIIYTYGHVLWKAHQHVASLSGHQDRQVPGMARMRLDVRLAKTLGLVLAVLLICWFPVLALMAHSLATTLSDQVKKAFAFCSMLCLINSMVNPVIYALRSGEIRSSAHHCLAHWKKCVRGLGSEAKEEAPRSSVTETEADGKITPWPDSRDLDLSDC
T1 sequence (P21554 whole entry): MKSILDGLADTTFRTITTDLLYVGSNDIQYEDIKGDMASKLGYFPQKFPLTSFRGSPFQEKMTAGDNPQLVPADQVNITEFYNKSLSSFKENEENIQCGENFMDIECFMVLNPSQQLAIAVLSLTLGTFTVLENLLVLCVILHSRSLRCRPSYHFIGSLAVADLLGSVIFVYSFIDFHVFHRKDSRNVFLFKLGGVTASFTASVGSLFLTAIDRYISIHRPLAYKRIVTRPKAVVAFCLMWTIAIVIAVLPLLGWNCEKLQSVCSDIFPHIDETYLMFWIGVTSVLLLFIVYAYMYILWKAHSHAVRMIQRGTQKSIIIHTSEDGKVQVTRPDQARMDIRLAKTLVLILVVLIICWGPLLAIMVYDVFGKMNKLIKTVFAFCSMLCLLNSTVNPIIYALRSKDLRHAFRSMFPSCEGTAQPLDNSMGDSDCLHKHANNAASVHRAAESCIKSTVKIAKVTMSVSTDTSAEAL

Compound	Ki (CB2 receptor [1])	Binding to CB1 receptor (in words) (CB1 receptor [2])	CB1 (% Binding) (CB1 receptor [2])	Ki (CB1 receptor [2])	Binding to CB2 receptor (in words) (CB2 receptor [3])	Ki (CB2 receptor [3])	Selectivity for CB2 compared to CB1 (fold) (CB2 receptor [3])	CB2 (% Binding) (CB2 receptor [3])	Agonism and antagonism at CB2 (CB2 receptor [4])	Functional effect at the CB2 receptor (in words) (CB2 receptor [4])	Agonism and antagonism at CB1 (CB1 receptor [5])	Functional effect at the CB1 receptor (in words) (CB1 receptor [5])	Ki (CB1 receptor [2]; read-out: Ki for CB1)
C=C(C)[C@@H]1CCC(C)C=C1c1c(O)cc(CCC)c(C(=O)OC2CCCCC2)c1O (stereo partly shown) [CHCBDV, cyclohexylcannabidivarinolat]		strong binding to the receptors within the lower nanomolar range	82.4% (n = 4)	13.2 ± 0.85 nM	strong binding to the receptors within the lower nanomolar range	4.62 ± 0.46 nM	2.9 fold	99.9% (n = 3)	++	CB1 and CB2 agonist; also recorded: Dose-dependent agonism	++	CB1 and CB2 agonist; also recorded: Dose-dependent agonism	
C=C(C)[C@@H]1CCC(C)C=C1c1c(O)cc(CCC)c(C(=O)OCCCCCC)c1O (stereo partly shown) [HCBDV, hexylcannabidivarinolat]		strong binding to the receptors within the lower nanomolar range	91.1% (n = 4)	8.28 ± 0.69 nM	strong binding to the receptors within the lower nanomolar range	9.91 ± 2.46 nM	0.8 fold	98.5% (n = 3)	0		++	selective activation of CB1 receptors; also recorded: Dose-dependent agonism	
C=C(C)[C@@H]1CCC(C)=C[C@H]1c1c(O)cc(CCC)c(C(=O)OCCO)c1O [HECBDV, 2-hydroxyethylcannabidivarinolat]			43.3% (n = 5)			168 ± 39.4 nM	33.6 fold	95.0% (n = 3)	++	selective agonist; also recorded: Dose-dependent agonism	−	inhibited; also recorded: Dose-dependent antagonism	5650 ± 3900 nM
